ChEMBL document CHEMBL1201862, “PubChem BioAssay data set” (2004)
Activity calls are given as the source filed them. Cut-off read from the data, not from the text of the source, for most assays here: actives have a measured EC50 and inactives only a lower limit.

Experiments:
[1] = molecular target: T1, Heat shock factor protein 1 (Mus musculus, UniProt P38532); assay: HSF1 potentiators in luciferase reporter cells, confirmation, cell-based, NIH3T3, luminescence, dose retest (AID 435004); assay type: functional;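 note: stress induced by proteasome inhibitor MG132 added 30 min after compound; luciferase reporter driven by HSF1 response element in NIH3T3 cells; actives raise luminescence as potentiators of the MG132 stress response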
T1 sequence (P38532 whole entry): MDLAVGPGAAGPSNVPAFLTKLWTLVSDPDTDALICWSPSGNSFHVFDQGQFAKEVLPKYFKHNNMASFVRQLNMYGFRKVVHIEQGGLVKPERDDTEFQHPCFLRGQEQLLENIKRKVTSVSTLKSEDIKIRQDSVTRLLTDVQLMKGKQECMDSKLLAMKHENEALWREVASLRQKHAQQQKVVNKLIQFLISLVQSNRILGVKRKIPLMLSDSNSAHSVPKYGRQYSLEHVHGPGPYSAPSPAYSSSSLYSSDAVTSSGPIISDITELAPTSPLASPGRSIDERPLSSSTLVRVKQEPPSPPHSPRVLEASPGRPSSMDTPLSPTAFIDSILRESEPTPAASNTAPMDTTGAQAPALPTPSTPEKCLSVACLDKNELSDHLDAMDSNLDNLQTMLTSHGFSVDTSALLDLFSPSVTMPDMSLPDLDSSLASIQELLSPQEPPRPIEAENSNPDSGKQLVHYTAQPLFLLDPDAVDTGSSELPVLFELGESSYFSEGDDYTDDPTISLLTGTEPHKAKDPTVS

[2] = molecular target: T2, Replicative DNA helicase DnaB (Mycobacterium tuberculosis, UniProt P9WMR3); assay: DnaB intein splicing inhibitors, dose response, biochemical, cell-free fluorescence (AID 449749); assay type: functional
T2 sequence (P9WMR3 whole entry): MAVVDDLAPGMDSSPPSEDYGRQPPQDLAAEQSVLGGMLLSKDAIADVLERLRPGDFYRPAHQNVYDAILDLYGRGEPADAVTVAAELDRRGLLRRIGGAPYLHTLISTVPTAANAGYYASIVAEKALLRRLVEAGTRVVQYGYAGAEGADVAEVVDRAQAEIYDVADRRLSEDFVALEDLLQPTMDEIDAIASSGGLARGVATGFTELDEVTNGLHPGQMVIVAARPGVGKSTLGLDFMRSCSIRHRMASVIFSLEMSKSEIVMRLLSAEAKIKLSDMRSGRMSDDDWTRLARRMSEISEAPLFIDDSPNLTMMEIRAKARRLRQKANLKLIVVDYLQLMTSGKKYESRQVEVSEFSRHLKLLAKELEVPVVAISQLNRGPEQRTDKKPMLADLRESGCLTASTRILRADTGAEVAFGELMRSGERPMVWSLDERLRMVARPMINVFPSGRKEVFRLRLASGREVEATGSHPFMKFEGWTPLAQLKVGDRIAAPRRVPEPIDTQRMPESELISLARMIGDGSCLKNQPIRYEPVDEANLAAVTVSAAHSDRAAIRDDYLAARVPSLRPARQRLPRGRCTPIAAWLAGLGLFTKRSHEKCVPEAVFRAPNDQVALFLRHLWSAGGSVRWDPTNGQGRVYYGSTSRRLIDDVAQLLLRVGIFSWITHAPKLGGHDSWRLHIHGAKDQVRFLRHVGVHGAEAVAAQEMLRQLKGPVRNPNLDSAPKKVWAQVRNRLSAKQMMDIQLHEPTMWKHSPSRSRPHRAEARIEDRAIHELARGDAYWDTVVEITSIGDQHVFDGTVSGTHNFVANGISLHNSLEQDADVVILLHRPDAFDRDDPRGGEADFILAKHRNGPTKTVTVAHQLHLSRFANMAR

Protein RecA = molecular target: T3, Protein RecA (Mycobacterium tuberculosis, UniProt P9WHJ3); assay: Fluorescence Cell-Free Homogeneous Dose Retest to Identify Inhibitors of RecA-Intein Splicing Activity. [Related pubchem assays (depositor defined):AID2097, AID2223, AID489010, AID492950]; assay type: functional
T3 sequence (P9WHJ3 whole entry): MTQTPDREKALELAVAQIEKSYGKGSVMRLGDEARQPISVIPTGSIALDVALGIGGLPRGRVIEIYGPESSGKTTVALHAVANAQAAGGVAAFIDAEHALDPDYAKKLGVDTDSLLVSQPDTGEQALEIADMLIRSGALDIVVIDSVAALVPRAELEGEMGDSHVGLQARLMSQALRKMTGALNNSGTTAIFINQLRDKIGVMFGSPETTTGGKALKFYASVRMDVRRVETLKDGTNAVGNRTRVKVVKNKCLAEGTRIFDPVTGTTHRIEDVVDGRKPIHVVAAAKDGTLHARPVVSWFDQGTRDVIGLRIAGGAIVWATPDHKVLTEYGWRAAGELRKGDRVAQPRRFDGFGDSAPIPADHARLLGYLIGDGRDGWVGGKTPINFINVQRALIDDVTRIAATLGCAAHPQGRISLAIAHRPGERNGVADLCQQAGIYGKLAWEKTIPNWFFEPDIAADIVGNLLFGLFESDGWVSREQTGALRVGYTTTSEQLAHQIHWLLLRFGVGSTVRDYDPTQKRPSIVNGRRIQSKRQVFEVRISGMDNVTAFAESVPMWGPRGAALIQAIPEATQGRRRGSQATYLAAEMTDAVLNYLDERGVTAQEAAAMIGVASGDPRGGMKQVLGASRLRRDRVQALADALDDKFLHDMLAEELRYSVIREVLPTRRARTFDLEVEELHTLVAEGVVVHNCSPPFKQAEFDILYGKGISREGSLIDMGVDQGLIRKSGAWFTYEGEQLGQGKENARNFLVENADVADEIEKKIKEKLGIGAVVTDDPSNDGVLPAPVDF

[3] = molecular target: T1, Heat shock factor protein 1; assay: inhibition of MG132-induced HSE-luciferase signal, confirmation, cell-based, NIH3T3, luminescence, dose retest (AID 2382); assay type: functional;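 note: NIH3T3 fibroblasts with HSF1-driven luciferase reporter stressed by proteasome inhibitor MG132; luminescence from HSF1-driven luciferase expression after 8 hours of MG132 stress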
[4] = inhibitors of firefly luciferase expression or activity, dose response, H4 neuroglioma cells, luminescence (AID 1990); assay type: functional, cell-based
[5] = Luminescence Cell-Based Dose Response HTS to Identify Inhibitors of 5'UTR Stem-Loop Driven Prion Protein mRNA Translation in H4 Neuroglioblastoma Cells. [Related pubchem assays: 1827 (Project Summary), 1813 (Primary HTS)]; assay type: functional
[6] = inhibitors of SNCA 5'UTR-driven reporter translation, confirmation, H4 neuroglioma cells, luminescence (AID 1988); assay type: functional, cell-based
[7] = inhibitors of intracellular T. cruzi replication, confirmation, NIH3T3 host cells, beta-gal luminescence (AID 2044); assay type: functional, cell-based;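 note: intracellular parasites grown in NIH/3T3 mouse fibroblasts as host cells; luminescent beta-galactosidase reporter signal from transgenic T. cruzi replicating inside host cells; inhibitors lower the luminescence signal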
[8] = cytotoxicity toward NIH3T3 fibroblasts, dose response, counter-screen, cell-based, ATP luminescence, mouse fibroblasts (AID 2010); assay type: functional;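 note: cells exposed to compound for about 90 hours before reading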

SMILES | EC50 [1] | EC50 [3] | other results
Cc1ccccc1/[N+]([O-])=C/c1cccs1 | > 260 µM (inactive) |  | 
O=S(=O)(NCc1ccccn1)c1ccc2ccccc2c1 | > 260 µM (inactive) |  | 
Cc1n[nH]c(O)c1C(c1ccc2c(c1)OCO2)c1c(C)n[nH]c1O |  |  | AC50 [2]: 0.324 µM (active); EC50 (Protein RecA): 0.189 µM (active)
COc1ccc(Cl)cc1N1C(=O)/C(=C\c2sccc2C)N=C1SCC(=O)NC1CC1 | > 260 µM (inactive) |  | 
COc1ccc(N2CCN(C(=O)COC(=O)CCOc3ccccc3C)CC2)cc1 |  | > 195 µM (not active) | 
COc1ccc(NC(=O)Nc2c(O)ccc3ccccc23)cc1 |  |  | AC50 [2]: > 380 µM (inactive); EC50 (Protein RecA): 1.49 µM (active)
CN(C)c1ccc(C(=O)n2nnc3ccccc32)cc1 |  |  | AC50 [2]: 7.46 µM (active); EC50 (Protein RecA): 9.71 µM (active)
Cc1sc2ncnc(N3CCOCC3)c2c1C |  |  | EC50 [4]: 20.4 µM (active); EC50 [5]: 40.6 µM (active); EC50 [6]: 17.5 µM (active)
CN1CCN(C(=O)c2cc([N+](=O)[O-])cc([N+](=O)[O-])c2)CC1 |  | > 195 µM (not active) | 
Cc1cc(C)n(-c2nc3ccccc3s2)n1 |  | > 195 µM (not active) | 
COc1cc(C(=O)N(C)C2CCCN(Cc3ccccc3F)C2)cc(OC)c1OC (stereo not given) |  | > 195 µM (not active) | 
COc1cc(OC)cc(C(=O)N/N=C(\C)CC(=O)Nc2ccccn2)c1 |  |  | AC50 [2]: 13.1 µM (active); EC50 (Protein RecA): 7.81 µM (active)
O=C(Nc1cccc(-c2ccc(F)cc2)c1)C1CCCN(C(=O)c2cscn2)C1 (stereo not given) |  | > 195 µM (not active) | 
Cc1n[nH]c(O)c1C(c1ccc(F)cc1)c1c(C)n[nH]c1O |  |  | AC50 [2]: 0.628 µM (active); EC50 (Protein RecA): 0.291 µM (active)
COc1cccc(NC=C2C(=O)CC(C)(C)CC2=O)c1 | 8.09 µM (active) |  | 
COC(=O)Nc1ccc(S(=O)(=O)Nc2cccc3ccccc23)cc1 | > 260 µM (inactive) |  | 
O=C(NCc1nc2ccccc2[nH]1)C1=C[C@@H](c2ccc3c(c2)OCO3)C[C@@H](OCc2ccc(CO)cc2)O1 |  | > 195 µM (not active) | 
COC(=O)c1c(N2C(=O)[C@H]3[C@@H](C2=O)[C@]2(C(=O)Nc4c(C)cccc42)N2CCC[C@@H]32)sc(C)c1C |  | > 195 µM (not active) | 
CCOc1ccc(NC(=S)N(CCc2ccncc2)C(C)C)cc1 |  | > 195 µM (not active) | 
CC1(c2cccs2)CC(c2cccs2)=C(C#N)C(=O)N1 (stereo not given) | > 260 µM (inactive) |  | 
CN1CCN(C(=O)c2ccc(Cn3cc(Cl)cn3)o2)CC1 | > 260 µM (inactive) |  | 

SMILES | EC50 [1] | EC50 [3] | other results
CCN1C(=O)[C@H]2[C@@H](c3ccc(C)cc3)N3C(=O)N(c4ccc(C)cc4)C(=O)[C@@]3(C)[C@H]2C1=O |  | > 195 µM (not active) | 
COc1ccc(Cc2noc(-c3ccc(OC)c(OC)c3)n2)cc1OC |  |  | EC50 [4]: > 120 µM (not active); EC50 [5]: > 120 µM (not active); EC50 [6]: > 120 µM (not active)
O=C(Nc1ccc2[nH]ncc2c1)c1ccccc1Cl |  | > 195 µM (not active) | 
CCOc1ccccc1-c1noc(CCCC(=O)NC2CCCCC2)n1 | > 260 µM (inactive) |  | 
COc1ccc2[nH]c(CN3CCC(CO)(CCOc4ccccc4)CC3)c(C)c2c1 |  |  | AC50 [2]: > 380 µM (inactive); EC50 (Protein RecA): > 380 µM (inactive)
CCCN(CCC)C(=O)CSc1nc2nnc(C)c-2c(N)n1-c1ccc(OC)cc1 |  |  | EC50 [4]: 19.3 µM (active); EC50 [5]: 19.8 µM (active); EC50 [6]: 16.1 µM (active)
CC(C)C(C)N(Cc1ccc(C(=O)O)cc1)C(=O)c1ccc2ccccc2n1 (stereo not given) | > 260 µM (inactive) |  | 
Cc1ccc2oc(C(=O)N3CCC(C(N)=O)(N4CCCCC4)CC3)c(C)c2c1 |  | > 195 µM (not active) | 
S=C1NCCN1 [ETHYLENE THIOUREA] |  | > 195 µM (not active) | 
CCOc1ccccc1NC(=O)Cn1nnc(C(=O)NCc2ccc3c(c2)OCO3)c1N |  |  | EC50 [4]: > 120 µM (not active); EC50 [5]: 36.7 µM (active); EC50 [6]: > 120 µM (not active)
COc1ccc(N2CCN(C(c3cccs3)C(C)NS(=O)(=O)c3ccccc3)CC2)cc1 (stereo not given) | > 260 µM (inactive) |  | 
CCN(C1CCS(=O)(=O)C1)S(=O)(=O)c1cccs1 (stereo not given) |  | > 195 µM (not active) | 
COc1c([N+](=O)[O-])c(=O)oc2ccccc12 |  | > 195 µM (not active) | 
O=C(Nc1ccc2c(c1)ncn2C1CCCCC1)c1ccco1 |  | > 195 µM (not active) | 
Cc1ccc2c(c1)N(Cc1ccc([N+](=O)[O-])cc1)C=NS2(=O)=O |  | > 195 µM (not active) | 
Fc1ccccc1-c1nc2nc3ccccc3nc2n1CC1CCCO1 (stereo not given) | > 260 µM (inactive) |  | 
COc1ccc(N(CC(=O)Nc2cccc(C)c2)S(=O)(=O)c2c(C)noc2C)cc1 |  | > 195 µM (not active) | 
O=C(Cc1cccs1)NCc1ccccc1Br | > 260 µM (inactive) |  | 
O=C1CC(N2C(=O)/C(=C/C=C/c3ccccc3)SC2=S)C(=O)N1c1ccccc1 (stereo not given) | > 260 µM (inactive) |  | 
CCC12C(=O)C(CC)(C(c3ccccc3)=C1c1ccccc1)[C@@H]1C(=O)N(c3ccc(C)cc3)C(=O)C12 (stereo not given in full) |  |  | EC50 [4]: 14.8 µM (active); EC50 [5]: > 120 µM (not active); EC50 [6]: > 120 µM (not active); EC50 [7]: 2.87 µM (active); EC50 [8]: > 30 µM (not active)
CCc1ccc(NC(=O)COC(=O)/C=C/c2c(C)nn(C3CCS(=O)(=O)C3)c2Cl)cc1 (stereo not given) | > 260 µM (inactive) |  | 
